Results from patent US11149052B2, “2′3′-cyclic dinucleotides” (Institute of Organic Chemistry and Biochemistry, ASCR, V.V.I, priority 2018, dated 2021).
Where two headings read alike, the source gives them in different places.

Columns and labels:
[1] = target: human wild type STING (WT STING) (Homo sapiens, UniProt Q86WV6, H232R); test: Digitonin assay using 293T wtSTING-FL reporter cells (ISRE firefly luciferase reporter); format: cell-based; conditions: 293T wtSTING-FL cells; 30 min in Digitonin buffer, then 5 hours; luciferase read-out; 8-point dose-response curve; read-out: Digitonin assay EC50 (μmol · l^−1) WT STING
human wild type STING (WT STING), sequence (Q86WV6 whole entry H232R): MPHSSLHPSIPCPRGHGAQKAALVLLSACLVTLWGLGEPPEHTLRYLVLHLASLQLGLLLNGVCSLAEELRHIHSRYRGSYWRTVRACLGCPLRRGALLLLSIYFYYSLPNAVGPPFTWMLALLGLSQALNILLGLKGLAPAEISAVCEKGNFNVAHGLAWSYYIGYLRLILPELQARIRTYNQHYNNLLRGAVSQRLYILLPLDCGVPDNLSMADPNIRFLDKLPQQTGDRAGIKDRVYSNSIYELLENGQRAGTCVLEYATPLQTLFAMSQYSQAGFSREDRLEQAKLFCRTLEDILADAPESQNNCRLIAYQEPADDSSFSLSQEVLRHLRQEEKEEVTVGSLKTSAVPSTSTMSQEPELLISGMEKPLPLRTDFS
From the text: Two complementary oligonucleotides of the sequence […] […] […] […] […] The oligonucleotides were mixed in equal molar amounts, hybridized, and cleaved by restriction endonucleases HindIII (cat. #. R0104S, NEB, Ipswich, USA) and BglII (cat. #R0144S, NEB, Ipswich, USA). Ultimately, they were ligated into plasmid pGL4.27 (cat. #E6651, Promega, Madison, USA) linearized with the same enzymes. As result the sequence with four ISRE sites was placed upstream of the minimum promoter of firefly luciferase reporter gene.
After 5 minutes incubation at room temperature (RT), 250 μL of the mixture was added dropwise to the cells in one well.
Transfected cells were seeded onto poly-D-lysine coated six well plates at density 50,000 cells per 1 cm^2 in DMEM medium with high glucose containing 10% heat inactivated FBS, 30 μg/mL blasticidin (cat. #ant-bl-05, InvivoGen, San Diego, USA), 0.06 mg/ml Penicillin G and 0.1 mg/ml Streptomycin Sulfate (both cat. #. L0018, Biowest, Riverside, USA). The medium was replenished every 3-4 days until visible colonies of cells resistant to blasticidin were formed.
Blasticidin resistant cells stably expressing WT STING were further transfected with […] plasmid following the same procedure as described above. […] Homogeneous culture of stably double transfected cells was prepared by limiting dilution of cells in 96 well plates and wells with cells were selected that originated from a single cell.
The medium was removed next day and three fold serial dilutions of compounds in Digitonin buffer containing 50 mmol·l^−1 HEPES (cat. #H3375, Sigma Aldrich, Czech Republic) pH 7.0, 100 mmol·l^−1 KCl, 3 mmol·l^−1 MgCl2, 0.1 mmol·l^−1 DTT (cat. #D0632, Sigma Aldrich, Czech Republic), 85 mmol·l^−1 Sucrose (cat. #S7903, Sigma Aldrich, Czech Republic), 0.2% BSA (cat. #A2153, Sigma Aldrich, Czech Republic), 1 mmol·l^−1 ATP (cat. #A1852, Sigma Aldrich, Czech Republic), 0.1 mmol·l^−1 GTP (cat. #G8877, Sigma Aldrich, Czech Republic), and 10 μg/mL Digitonin A (cat. #D141, Sigma Aldrich, Czech Republic) were added to the cells. The buffer was removed after 30 minutes incubation at 37° C. with 5% CO2, the cells were washed once with 100 μl of cultivation medium, and 100 IA of medium was added to each well. The plates with cells were incubated for 5 hours at 37° C. with 5% CO2, 50 μl of the medium was removed and 30 μl of ONE-Glo™ Luciferase Assay System reagent (cat. #E6120, Promega, Madison, USA) was added to each well. Luminesce was read on Synergy H1 (Biotek, Winooski, USA).

[2] = target: T1, WT STING (truncated human WT STING protein) (Homo sapiens, UniProt Q86WV6, H232R); test: Differential Scanning Fluorimetry with WT STING; format: binding; conditions: read-out: DSF ΔTm (° C.) WT STING
T1 construct: truncated human WT STING or AQ STING (amino acid residues 140-343); 8xHis (N, cleaved yes); SUMO (N, cleaved yes); made in house; host or cells: E. coli Rosetta-gami B (DE3)
T1 sequence (Q86WV6 140-343 H232R): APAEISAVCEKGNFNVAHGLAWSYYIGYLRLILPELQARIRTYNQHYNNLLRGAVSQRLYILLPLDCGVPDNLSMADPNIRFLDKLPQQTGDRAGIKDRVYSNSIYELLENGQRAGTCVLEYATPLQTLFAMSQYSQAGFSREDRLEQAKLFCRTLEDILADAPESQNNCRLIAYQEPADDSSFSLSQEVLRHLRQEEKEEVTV
Protocol: (§1) Purified PCR products were cleaved with restriction enzymes BamHI (cat. #R0136S, NEB, Ipswich, USA) and NotI (cat. #R0189S, NEB, Ipswich, USA) and cloned into the pSUMO vector linearized with the identical enzymes.
(§2) DNase I (cat. #D5025, Sigma Aldrich, Czech Republic) and RNase A (cat. #R6513, Sigma Aldrich, Czech Republic) were added (final concentration […]) together with MgCl2 (final concentration 5 mmol·l^−1) to the homogenate and bacteria were lysed using French Press G-M™ High-Pressure Cell Press Homogenizer (1500 psi, 3 cycles). […] The resin was poured into a chromatography column, washed with 50 ml buffer A (50 mmol·l^−1 TrisCl (pH 8.0), 800 mmol·l^−1 NaCl, 3 mmol·l^−1β-mercaptoethanol; 10% glycerol; 20 mmol·l^−1 imidazole) and 8-His-SUMO tagged STING proteins were eluted with 15 ml buffer A containing 300 mmol·l^−1 imidazole. […] Proteins were concentrated with Amicon® Ultra-15 10 K device (cat. #UFC901008, Merck Millipore, Billerica, USA) and flash frozen in liquid N2.
(§3) Differential Scanning Fluorimetry with WT STING and AQ STING
(§4) 20 μL solutions of the reaction mixtures were pipetted in triplicates into 96 well optical reaction plates and thermal denaturation of samples were performed on real time PCR cycler (LightCycler® 480 Instrument II—Roche, Base^1, Switzerland). The first derivative of the thermal denaturation curves was performed to calculate denaturing temperatures of STING-CDN complexes and STING apoproteins. The thermal shift for each CDN was calculated by subtracting the average denaturing temperature of STING apoprotein from the average denaturing temperature of STING CDN complex.

[3] = target: T2, AQ STING (truncated human STING G230A-R293Q allelic form) (Homo sapiens, UniProt Q86WV6, G230A/H232R/R293Q); test: Differential Scanning Fluorimetry with AQ STING; format: binding; conditions: read-out: DSF ΔTm (° C.) AQ STING
T2 construct: truncated human WT STING or AQ STING (amino acid residues 140-343); 8xHis (N, cleaved yes); SUMO (N, cleaved yes); made in house; host or cells: E. coli Rosetta-gami B (DE3)
T2 sequence (Q86WV6 140-343 G230A/H232R/R293Q): as the sequence (Q86WV6 140-343 H232R) above, with G91A, R154Q counted along it
Protocol: as §1, §2, §3, §4

[4] = thermal shift vs apoprotein, 150 μM CDN, 0.1 mg/ml STING protein, SYPRO Orange

| Structure (SMILES) | EC50 [1] [nM] | ΔTm at 150 µM [2, 4] [°C] | ΔTm at 150 µM [3, 4] [°C] | ΔTm at 150 µM [2] [°C] | ΔTm at 150 µM [3] [°C] |
| --- | --- | --- | --- | --- | --- |
| Nc1nc2c(ncn2[C@@H]2O[C@@H]3COP(=O)(O)CO[C@H]4[C@@H](O)[C@H](n5cnc6c(N)ncnc65)O[C@@H]4COP(=O)(O)O[C@@H]2[C@@H]3O)c(=O)[nH]1 [Example 5, (1R,6R,8R,9R,10S,16R,18R,19R)-18-(2-amino-6-oxo-6,9-dihydro-1H-purin-9-yl)-8-(6-amino-9H-purin-9-yl)-3,9,13,19-tetrahydroxy-2,4,7,11,14,17-hexaoxa-3λ^5,13λ^5-diphosphatricyclo[14.2.1.0^6,^10]nonadecane-3,13-dione] | 14 | 16.7 | 23.2 | – | – |
| Nc1nc2c(ncn2[C@@H]2O[C@@H]3COP(=O)(O)CO[C@H]4[C@@H](O)[C@H](n5cnc6c(N)ncnc65)O[C@@H]4COP(=O)(O)O[C@@H]2C3)c(=O)[nH]1 [Example 21, (1R,6R,8R,9R,10S,16S,18R)-18-(2-amino-6-oxo-6,9-dihydro-1H-purin-9-yl)-8-(6-amino-9H-purin-9-yl)-3,9,13-trihydroxy-2,4,7,11,14,17-hexaoxa-3λ^5,13λ^5-diphosphatricyclo[14.2.1.0^6,^10]nonadecane-3,13-dione] | 6 | 14.2 | 21 | – | – |
| Nc1nc2c(ncn2[C@@H]2O[C@@H]3COP(=O)(O)CO[C@H]4[C@@H](F)[C@H](n5cnc6c(N)ncnc65)O[C@@H]4COP(=O)(O)O[C@@H]2C3)c(=O)[nH]1 [Example 18, (1R,6R,8R,9R,10R,16S,18R)-18-(2-amino-6-oxo-6,9-dihydro-1H-purin-9-yl)-8-(6-amino-9H-purin-9-yl)-9-fluoro-3,13-dihydroxy-2,4,7,11,14,17-hexaoxa-3λ^5,13λ^5-diphosphatricyclo[14.2.1.0^6,^10]nonadecane-3,13-dione] | 20 | 19 | 23.9 | – | – |
| Nc1nc2c(ncn2[C@@H]2O[C@@H]3COP(=O)(O)CO[C@H]4[C@H](O)[C@H](n5cnc6c(N)ncnc65)O[C@@H]4COP(=O)(O)O[C@@H]2[C@@H]3O)c(=O)[nH]1 [Example 16, (1R,6R,8R,9S,10S,16R,18R,19R)-18-(2-amino-6-oxo-6,9-dihydro-1H-purin-9-yl)-8-(6-amino-9H-purin-9-yl)-3,9,13,19-tetrahydroxy-2,4,7,11,14,17-hexaoxa-3λ^5,13λ^5-diphosphatricyclo[14.2.1.0^6,^10]nonadecane-3,13-dione] | 40 | 15.8 | 18.7 | – | – |
| Nc1ncnc2c1ncn2[C@@H]1O[C@@H]2COP(=O)(O)CO[C@@H]3[C@@H](O)[C@@H](COP(=O)(O)CO[C@@H]2[C@H]1O)O[C@H]3n1cnc2c(N)ncnc21 [Example 12, (1R,7R,9R,10R,11R,17R,19R,20S)-9,19-bis(6-amino-9H-purin-9-yl)-4,10,14,20-tetrahydroxy-2,5,8,12,15,18-hexaoxa-4λ^5,14λ^5-diphosphatricyclo[15.2.1.0^7,^11]icosane-4,14-dione] | > 50000 | 0 | 0 | – | – |
| Nc1nc2c(ncn2[C@@H]2O[C@@H]3COP(=O)(O)O[C@H]4[C@@H](F)[C@H](n5cnc6c(N)ncnc65)O[C@@H]4COP(=O)(O)CO[C@@H]2[C@@H]3O)c(=O)[nH]1 [Example 4, (1R,6R,7R,8R,10R,16R,17R,19R)-17-(2-amino-6-oxo-6,9-dihydro-1H-purin-9-yl)-8-(6-amino-9H-purin-9-yl)-7-fluoro-4,13,19-trihydroxy-3,5,9,12,15,18-hexaoxa-4λ^5,13λ^5-diphosphatricyclo[14.2.1.0^6,^10]nonadecane-4,13-dione] | 20 | 7.3 | 16 | – | – |
| Nc1nc(N)c2ncn([C@@H]3O[C@@H]4COP(=O)(O)O[C@@H]5[C@H](O)[C@@H](COP(=O)(O)CO[C@H]4[C@H]3F)O[C@H]5n3cnc4c(N)ncnc43)c2n1 [Example 26, (1R,6R,8R,9R,10R,16R,18R,19R)-18-(6-amino-9H-purin-9-yl)-8-(2,6-diamino-9H-purin-9-yl)-9-fluoro-3,13,19-trihydroxy-2,4,7,11,14,17-hexaoxa-3λ^5,13λ^5-diphosphatricyclo[14.2.1.0^6,^10]nonadecane-3,13-dione] | 580 | 2.1 | 7.5 | – | – |
| Nc1nc2c(ncn2[C@@H]2O[C@@H]3COP(=O)(O)CO[C@@H]4[C@H](O)[C@@H](COP(=O)(O)CO[C@H]3[C@H]2O)O[C@H]4n2cnc3c(=O)[nH]c(N)nc32)c(=O)[nH]1 [Example 9, (1R,7R,9R,10R,11S,17R,19R,20R)-9,19-bis(2-amino-6-oxo-6,9-dihydro-1H-purin-9-yl)-4,10,14,20-tetrahydroxy-2,5,8,12,15,18-hexaoxa-4λ^5,14λ^5-diphosphatricyclo[15.2.1.0^7,^11]icosane-4,14-dione] | > 50000 | – | – | 0.3 | 1.1 |
| Nc1ncnc2c1ncn2[C@@H]1O[C@@H]2COP(=O)(O)CO[C@H]3[C@H](O)[C@@H](COP(=O)(O)CO[C@H]2[C@@H]1O)O[C@H]3n1cnc2c(N)ncnc21 [Example 13, (1S,7R,9R,10S,11S,17R,19R,20R)-9,19-bis(6-amino-9H-purin-9-yl)-4,10,14,20-tetrahydroxy-2,5,8,12,15,18-hexaoxa-4λ^5,14λ^5-diphosphatricyclo[15.2.1.0^7,^11]icosane-4,14-dione] | > 50000 | 0 | 0.2 | – | – |
| Nc1nc2c(ncn2[C@@H]2O[C@@H]3COP(=O)(O)CO[C@@H]4[C@H](O)[C@@H](COP(=O)(O)O[C@H]3[C@H]2O)O[C@H]4n2cnc3c(N)ncnc32)c(=O)[nH]1 [Example 6, (1R,6S,7R,8R,10R,16R,17R,19R)-8-(2-amino-6-oxo-6,9-dihydro-1H-purin-9-yl)-17-(6-amino-9H-purin-9-yl)-4,7,13,19-tetrahydroxy-3,5,9,12,15,18-hexaoxa-4λ^5,13λ^5-diphosphatricyclo[14.2.1.0^6,^10]nonadecane-4,13-dione] | > 50000 | 0.1 | 1.2 | – | – |
| Nc1ncnc2c1ncn2[C@@H]1O[C@@H]2COP(=O)(O)CO[C@@H]3[C@H](O)[C@@H](COP(=O)(O)O[C@H]2[C@H]1O)O[C@H]3n1cnc2c(N)ncnc21 [Example 23, (1R,6S,7R,8R,10R,16R,17R,19R)-8,17-bis(6-amino-9H-purin-9-yl)-4,7,13,19-tetrahydroxy-3,5,9,12,15,18-hexaoxa-4λ^5,13λ^5-diphosphatricyclo[14.2.1.0^6,^10]nonadecane-4,13-dione] | 5900 | 0.2 | 3.4 | – | – |
